Tests used:
[1] = cited from earlier work
EAE mice = settings: cited from earlier work
GCPII = tested on: GCPII; parameters: method as in PMID 23169655, PMID 26826008; settings: ref [8], [9]; cited from earlier work
[2] = target: human recombinant GCPII enzyme (Homo sapiens, UniProt Q04609); assay: GCPII activity assay (IC50), NAA-[3H]-G hydrolysis; assay type: biochemical; settings: human recombinant GCPII 40 pM, NAA-[3H]-G 30 nM, 37 °C, 20 min
Chain of human recombinant GCPII enzyme (Q04609 whole entry): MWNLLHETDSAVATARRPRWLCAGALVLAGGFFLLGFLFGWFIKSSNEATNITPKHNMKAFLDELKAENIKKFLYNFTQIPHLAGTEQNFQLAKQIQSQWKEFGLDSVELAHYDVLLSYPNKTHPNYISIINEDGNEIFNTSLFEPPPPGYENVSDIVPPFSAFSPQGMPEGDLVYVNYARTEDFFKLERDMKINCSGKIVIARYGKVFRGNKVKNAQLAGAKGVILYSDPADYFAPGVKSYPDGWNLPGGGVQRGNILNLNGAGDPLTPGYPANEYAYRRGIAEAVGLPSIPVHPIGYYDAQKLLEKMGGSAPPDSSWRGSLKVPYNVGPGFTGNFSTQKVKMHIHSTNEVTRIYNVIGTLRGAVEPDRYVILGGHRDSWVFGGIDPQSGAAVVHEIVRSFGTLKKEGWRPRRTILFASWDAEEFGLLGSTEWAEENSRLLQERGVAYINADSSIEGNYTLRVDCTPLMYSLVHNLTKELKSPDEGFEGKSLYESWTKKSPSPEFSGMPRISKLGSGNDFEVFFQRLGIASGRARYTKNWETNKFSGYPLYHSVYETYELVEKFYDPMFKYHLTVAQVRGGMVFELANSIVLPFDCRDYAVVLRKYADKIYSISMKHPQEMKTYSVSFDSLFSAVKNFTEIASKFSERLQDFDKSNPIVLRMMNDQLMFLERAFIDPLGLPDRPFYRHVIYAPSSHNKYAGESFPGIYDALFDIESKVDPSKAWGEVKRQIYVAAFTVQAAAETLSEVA

IC50 [2]	SMILES	clearance from circulation ([1]; free drug, ref [9])	brain penetration (AUCbrain/AUCplasma) ([1]; ref [37])	oral bioavailability (F) ([1]; ref [37])	effect on EAE disease score (EAE mice; free 2-PMPA treatment, ref [8], [9])	minimal dose required for positive behavioral effects and alterations in brain NAAG levels (EAE mice; previous dose response studies, ref [9])	IC50 (GCPII)
	O=C(O)CCC(CP(=O)(O)O)C(=O)O (stereo not shown) [2-PMPA, 2-(phosphonomethyl)-pentanedioic acid]	cleared from circulation within six hours	< 0.02	< 2%	no effect on EAE disease score	[…]	[…]
1.6 nM	[N-]=[N+]=NCCOCCOCCOCCOCCOCCOCCOCCOCCOCCOCCOC(=O)CCC(CP(=O)(O)O)C(=O)O (stereo not shown) [2-PMPA-PEG-azide]						

— article PMC8671953 (Nanotheranostics, 2022)
